What was measured:
Experiment in all cases: relative viability (nuclei count vs DMSO), 5 days (fraction); higher = more cells survive
NCI-H1355 = system: NCI-H1355
Summary of the method: (§1)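 Lung cancer cell lines were pin-tool dosed in 1536-well plates on the day after seeding, with either a lone drug or a fixed anchor-drug dose plus five library-drug doses (not always all listed) in √10 steps. Nuclei were counted on 4× images after 5 days. Relative viability is the ratio of treated-well to vehicle-well nuclei counts, with each value a median of duplicate plates.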

HCC-827 = system: HCC-827
Summary of the method: as §1

HCC-366 = system: HCC-366
Summary of the method: as §1

NCI-H2085 = system: NCI-H2085
Summary of the method: as §1

NCI-H2009 = system: NCI-H2009
Summary of the method: as §1

NCI-H460 = system: NCI-H460
Summary of the method: as §1

ChaGo-K-1 = system: ChaGo-K-1
Summary of the method: as §1

NCI-H1993 = system: NCI-H1993
Summary of the method: as §1

H3255 = system: H3255
Summary of the method: as §1

NCI-H2342 = system: NCI-H2342
Summary of the method: as §1

EKVX = system: EKVX
Summary of the method: as §1

CAL-12T = system: CAL-12T
Summary of the method: as §1

NCI-H2228 = system: NCI-H2228
Summary of the method: as §1

SK-MES-1 = system: SK-MES-1
Summary of the method: as §1

NCI-H1975 = system: NCI-H1975
Summary of the method: as §1

NCI-H441 = system: NCI-H441
Summary of the method: as §1

NCI-H322M = system: NCI-H322M
Summary of the method: as §1

EPLC-272H = system: EPLC-272H
Summary of the method: as §1

ABC-1 = system: ABC-1
Summary of the method: as §1

COR-L 105 = system: COR-L 105
Summary of the method: as §1

NCI-H2087 = system: NCI-H2087
Summary of the method: as §1

## Cc1csc(=NC2CCCCC2)n1/N=C/c1ccc(O)c(O)c1O [MIM1] + O=C(CCCCCCC(=O)Nc1ccccc1)NO [Vorinostat] (partner 1 µM)
NCI-H1355; first compound 0.2 µM
  relative viability: 0.673
NCI-H1355; first compound 0.6325 µM
  relative viability: 0.604
NCI-H1355; first compound 2 µM
  relative viability: 0.693
NCI-H1355; first compound 6.325 µM
  relative viability: 0.544
NCI-H1355; first compound 20 µM
  relative viability: 0.487
HCC-827; first compound 0.2 µM
  relative viability: 0.871
HCC-827; first compound 0.6325 µM
  relative viability: 0.731
HCC-827; first compound 2 µM
  relative viability: 0.777
HCC-827; first compound 6.325 µM
  relative viability: 0.231
HCC-827; first compound 20 µM
  relative viability: 0.349
HCC-366; first compound 0.2 µM
  relative viability: 0.33
HCC-366; first compound 2 µM
  relative viability: 0.243
HCC-366; first compound 6.325 µM
  relative viability: 0.0699
HCC-366; first compound 20 µM
  relative viability: 0.0271
NCI-H2085; first compound 0.2 µM
  relative viability: 0.765
NCI-H2085; first compound 0.6325 µM
  relative viability: 0.728
NCI-H2085; first compound 2 µM
  relative viability: 0.763
NCI-H2085; first compound 6.325 µM
  relative viability: 0.547
NCI-H2085; first compound 20 µM
  relative viability: 0.563
NCI-H2009; first compound 0.2 µM
  relative viability: 0.717
NCI-H2009; first compound 0.6325 µM
  relative viability: 0.713
NCI-H2009; first compound 2 µM
  relative viability: 0.685
NCI-H2009; first compound 6.325 µM
  relative viability: 0.506
NCI-H2009; first compound 20 µM
  relative viability: 0.372
NCI-H460; first compound 0.2 µM
  relative viability: 0.703
NCI-H460; first compound 0.6325 µM
  relative viability: 0.746
NCI-H460; first compound 2 µM
  relative viability: 0.411
NCI-H460; first compound 6.325 µM
  relative viability: 0.117
NCI-H460; first compound 20 µM
  relative viability: 0.0234
ChaGo-K-1; first compound 0.2 µM
  relative viability: 0.714
ChaGo-K-1; first compound 0.6325 µM
  relative viability: 0.449
ChaGo-K-1; first compound 2 µM
  relative viability: 0.699
ChaGo-K-1; first compound 6.325 µM
  relative viability: 0.543
ChaGo-K-1; first compound 20 µM
  relative viability: 0.157
NCI-H1993; first compound 0.2 µM
  relative viability: 0.851
NCI-H1993; first compound 0.6325 µM
  relative viability: 0.601
NCI-H1993; first compound 2 µM
  relative viability: 0.601
NCI-H1993; first compound 6.325 µM
  relative viability: 0.348
NCI-H1993; first compound 20 µM
  relative viability: 0.413
H3255; first compound 0.2 µM
  relative viability: 0.776
H3255; first compound 0.6325 µM
  relative viability: 0.901
H3255; first compound 2 µM
  relative viability: 0.759
H3255; first compound 6.325 µM
  relative viability: 0.67
H3255; first compound 20 µM
  relative viability: 0.321
NCI-H2342; first compound 0.2 µM
  relative viability: 0.727
NCI-H2342; first compound 0.6325 µM
  relative viability: 0.719
NCI-H2342; first compound 2 µM
  relative viability: 0.774
NCI-H2342; first compound 6.325 µM
  relative viability: 0.589
NCI-H2342; first compound 20 µM
  relative viability: 0.905
EKVX; first compound 0.2 µM
  relative viability: 0.609
EKVX; first compound 2 µM
  relative viability: 0.707
EKVX; first compound 6.325 µM
  relative viability: 0.473
EKVX; first compound 20 µM
  relative viability: 0.265
CAL-12T; first compound 0.2 µM
  relative viability: 0.765
CAL-12T; first compound 0.6325 µM
  relative viability: 0.752
CAL-12T; first compound 2 µM
  relative viability: 0.801
CAL-12T; first compound 6.325 µM
  relative viability: 0.588
CAL-12T; first compound 20 µM
  relative viability: 0.595
NCI-H2228; first compound 0.2 µM
  relative viability: 0.641
NCI-H2228; first compound 0.6325 µM
  relative viability: 0.909
NCI-H2228; first compound 2 µM
  relative viability: 0.589
NCI-H2228; first compound 6.325 µM
  relative viability: 0.19
NCI-H2228; first compound 20 µM
  relative viability: 0.206
SK-MES-1; first compound 0.2 µM
  relative viability: 1.02
SK-MES-1; first compound 0.6325 µM
  relative viability: 0.953
SK-MES-1; first compound 2 µM
  relative viability: 0.959
SK-MES-1; first compound 6.325 µM
  relative viability: 0.594
SK-MES-1; first compound 20 µM
  relative viability: 0.2
NCI-H1975; first compound 0.2 µM
  relative viability: 0.682
NCI-H1975; first compound 0.6325 µM
  relative viability: 0.708
NCI-H1975; first compound 2 µM
  relative viability: 0.644
NCI-H1975; first compound 6.325 µM
  relative viability: 0.239
NCI-H1975; first compound 20 µM
  relative viability: 0.204
NCI-H441; first compound 0.2 µM
  relative viability: 0.748
NCI-H441; first compound 0.6325 µM
  relative viability: 0.798
NCI-H441; first compound 2 µM
  relative viability: 0.974
NCI-H441; first compound 6.325 µM
  relative viability: 0.212
NCI-H441; first compound 20 µM
  relative viability: 0.191
NCI-H322M; first compound 0.2 µM
  relative viability: 0.889
NCI-H322M; first compound 0.6325 µM
  relative viability: 0.917
NCI-H322M; first compound 2 µM
  relative viability: 0.789
NCI-H322M; first compound 6.325 µM
  relative viability: 0.733
NCI-H322M; first compound 20 µM
  relative viability: 0.418
EPLC-272H; first compound 0.2 µM
  relative viability: 0.509
EPLC-272H; first compound 0.6325 µM
  relative viability: 0.523
EPLC-272H; first compound 2 µM
  relative viability: 0.343
EPLC-272H; first compound 6.325 µM
  relative viability: 0.125
EPLC-272H; first compound 20 µM
  relative viability: 0.126
ABC-1; first compound 0.2 µM
  relative viability: 1.42
ABC-1; first compound 0.6325 µM
  relative viability: 0.87
ABC-1; first compound 2 µM
  relative viability: 0.994
ABC-1; first compound 6.325 µM
  relative viability: 0.497
ABC-1; first compound 20 µM
  relative viability: 0.247
COR-L 105; first compound 0.2 µM
  relative viability: 0.809
COR-L 105; first compound 0.6325 µM
  relative viability: 0.821
COR-L 105; first compound 2 µM
  relative viability: 0.774
COR-L 105; first compound 6.325 µM
  relative viability: 0.731
COR-L 105; first compound 20 µM
  relative viability: 0.616
NCI-H2087; first compound 0.2 µM
  relative viability: 0.68
NCI-H2087; first compound 0.6325 µM
  relative viability: 0.536
NCI-H2087; first compound 2 µM
  relative viability: 0.877
NCI-H2087; first compound 6.325 µM
  relative viability: 0.596
NCI-H2087; first compound 20 µM
  relative viability: 0.497

Source: the supplement of paper PMC10307832
